In patent publication US11180504B2 (ORCHID PHARMA LTD., priority 2016, dated 2021):
Values after ≈ are worked out from the molar mass of the structure shown.

Columns and labels:
[1] = test system: carbapenemase producing K. pneumoniae; experiment: MIC by broth micro-dilution (CLSI), carbapenemase producing K. pneumoniae; type: cell-based, Klebsiella pneumoniae; settings: Klebsiella pneumoniae, ATCCBAA1705, KPC-2 K. pneumoniae ATCC BAA-1705; read-out: MIC
[2] = test system: methicillin-sensitive Staphylococcus aureus; experiment: MIC by broth micro-dilution (CLSI), methicillin-sensitive S. aureus; type: cell-based; settings: Staphylococcus aureus, ATCC 29213 / MSSA, MSSA S. aureus ATCC29213; read-out: MIC
[3] = test system: carbapenem sensitive Escherichia coli; experiment: MIC by broth micro-dilution (CLSI), carbapenem sensitive E. coli; type: cell-based; settings: Escherichia coli, ATCC25922, ESBL −ve E. coli ATCC25922; read-out: MIC
[4] = test system: extended spectrum β lactamase (ESBL) SHV18 producing Klebsiella pneumoniae; experiment: MIC by broth micro-dilution (CLSI), ESBL SHV18 producing K. pneumoniae; type: cell-based; settings: Klebsiella pneumoniae, ATCC700603, 22 h, ESBL +ve (SHV-18) K. pneumoniae ATCC700603; read-out: MIC
[5] = test system: carbapenem sensitive Pseudomonas aeruginosa; experiment: MIC by broth micro-dilution (CLSI), carbapenem sensitive P. aeruginosa; type: cell-based; settings: Pseudomonas aeruginosa, ATCC27853, Meropenem susceptible P. aeruginosa ATCC27853; read-out: MIC

Structure (SMILES)	MIC [1]	MIC [2]	MIC [3]	MIC [4]	MIC [5]
C[C@@H](NC(=O)[C@H]1CCCO1)[C@H]1C(=O)N2C(C(=O)O)=C(S[C@@H]3CN[C@H](C(=O)N(C)C)C3)[C@H](C)[C@H]12 [Example 58]	> 128 µg/mL	32 µg/mL (≈ 66.6 µM)	16 µg/mL (≈ 33.3 µM)	> 128 µg/mL	> 128 µg/mL
C[C@@H](NC(=O)C(F)F)[C@H]1C(=O)N2C(C(=O)O)=C(S[C@@H]3CN[C@H](C(=O)N4CCS(=O)(=O)CC4)C3)[C@H](C)[C@H]12 [Example 49]	> 128 µg/mL	2 µg/mL (≈ 3.63 µM)	1 µg/mL (≈ 1.82 µM)	2 µg/mL (≈ 3.63 µM)	> 128 µg/mL
C[C@@H](NC(=O)C(F)F)[C@H]1C(=O)N2C(C(=O)O)=C(S[C@@H]3CN[C@H](C(=O)N4CCO[C@H](CN)C4)C3)[C@H](C)[C@H]12 [Example 126]	8 µg/mL (≈ 15 µM)	2 µg/mL (≈ 3.76 µM)	2 µg/mL (≈ 3.76 µM)	8 µg/mL (≈ 15 µM)	16 µg/mL (≈ 30.1 µM)
C[C@@H](NC(=O)C(F)F)[C@H]1C(=O)N2C(C(=O)O)=C(S[C@@H]3CN[C@H](C(=O)N4CC[C@@H](F)C4)C3)[C@H](C)[C@H]12 [Example 209]	2 µg/mL (≈ 3.96 µM)	2 µg/mL (≈ 3.96 µM)	0.5 µg/mL (≈ 0.991 µM)	2 µg/mL (≈ 3.96 µM)	64 µg/mL (≈ 127 µM)
C[C@@H](NC(=O)C(F)F)[C@H]1C(=O)N2C(C(=O)O)=C(S[C@@H]3CN[C@H](C(=O)N4CCC(N)CC4)C3)[C@H](C)[C@H]12 [Example 132]	4 µg/mL (≈ 7.76 µM)	2 µg/mL (≈ 3.88 µM)	1 µg/mL (≈ 1.94 µM)	4 µg/mL (≈ 7.76 µM)	4 µg/mL (≈ 7.76 µM)
C[C@@H](NC(=O)C(F)F)[C@H]1C(=O)N2C(C(=O)O)=C(S[C@@H]3CN[C@H](C(=O)N4C[C@H](N)[C@@H](F)C4)C3)[C@H](C)[C@H]12 [Example 211]	4 µg/mL (≈ 7.7 µM)	2 µg/mL (≈ 3.85 µM)	1 µg/mL (≈ 1.92 µM)	4 µg/mL (≈ 7.7 µM)	16 µg/mL (≈ 30.8 µM)
CNCC(=O)N[C@H](C)[C@H]1C(=O)N2C(C(=O)O)=C(S[C@@H]3CN[C@H](C(=O)N4CC[C@@H](F)C4)C3)[C@H](C)[C@H]12 [Example 215]	8 µg/mL (≈ 16.1 µM)	8 µg/mL (≈ 16.1 µM)	2 µg/mL (≈ 4.02 µM)	32 µg/mL (≈ 64.3 µM)	> 128 µg/mL
C[C@@H](NC(=O)C(F)F)[C@H]1C(=O)N2C(C(=O)O)=C(S[C@@H]3CN[C@H](C(=O)N4CC[C@H](NC=N)C4)C3)[C@H](C)[C@H]12 [Example 184]	8 µg/mL (≈ 15.1 µM)	2 µg/mL (≈ 3.78 µM)	0.5 µg/mL (≈ 0.946 µM)	4 µg/mL (≈ 7.57 µM)	4 µg/mL (≈ 7.57 µM)
C[C@@H](NC(=O)C(F)F)[C@H]1C(=O)N2C(C(=O)O)=C(S[C@@H]3CN[C@H](C(=O)N(C)[C@@H]4CN[C@H](C(=O)N(C)C)C4)C3)[C@H](C)[C@H]12 [Example 172]	8 µg/mL (≈ 13.6 µM)	4 µg/mL (≈ 6.82 µM)	1 µg/mL (≈ 1.7 µM)	8 µg/mL (≈ 13.6 µM)	64 µg/mL (≈ 109 µM)
C[C@@H](NC(=O)C(F)F)[C@H]1C(=O)N2C(C(=O)O)=C(SCCN)[C@H](C)[C@H]12 [Example 92]	4 µg/mL (≈ 11 µM)	1 µg/mL (≈ 2.75 µM)	0.5 µg/mL (≈ 1.38 µM)	4 µg/mL (≈ 11 µM)	32 µg/mL (≈ 88.1 µM)
C[C@@H](NC(=O)C(F)F)[C@H]1C(=O)N2C(C(=O)O)=C(S[C@@H]3CN[C@H](C(=O)N4CC[C@H](NC(=O)CNC(=N)N)C4)C3)[C@H](C)[C@H]12 [Example 196]	8 µg/mL (≈ 13.3 µM)	2 µg/mL (≈ 3.33 µM)	1 µg/mL (≈ 1.66 µM)	4 µg/mL (≈ 6.66 µM)	32 µg/mL (≈ 53.3 µM)
C[C@@H](NC(=O)C(F)F)[C@H]1C(=O)N2C(C(=O)O)=C(S[C@@H]3CN[C@H](C(=O)N4CC[C@H](NS(=O)(=O)CCN)C4)C3)[C@H](C)[C@H]12 [Example 133]	8 µg/mL (≈ 13.1 µM)	4 µg/mL (≈ 6.57 µM)	1 µg/mL (≈ 1.64 µM)	4 µg/mL (≈ 6.57 µM)	8 µg/mL (≈ 13.1 µM)
CNCC(=O)N[C@H](C)[C@H]1C(=O)N2C(C(=O)O)=C(S[C@@H]3CN[C@H](C(=O)N4CCC(NC(=O)CN)CC4)C3)[C@H](C)[C@H]12 [Example 193]	4 µg/mL (≈ 7.07 µM)	64 µg/mL (≈ 113 µM)	4 µg/mL (≈ 7.07 µM)	8 µg/mL (≈ 14.1 µM)	8 µg/mL (≈ 14.1 µM)
CNCCC(=O)N[C@H](C)[C@H]1C(=O)N2C(C(=O)O)=C(S[C@@H]3CN[C@H](C(=O)N(C)C)C3)[C@H](C)[C@H]12 [Example 166]	8 µg/mL (≈ 17.1 µM)	64 µg/mL (≈ 137 µM)	4 µg/mL (≈ 8.55 µM)	8 µg/mL (≈ 17.1 µM)	32 µg/mL (≈ 68.4 µM)
C[C@@H](NC(=O)CS(C)(=O)=O)[C@H]1C(=O)N2C(C(=O)O)=C(S[C@@H]3CN[C@H](C(=O)N(C)C)C3)[C@H](C)[C@H]12 [Example 78]	> 128 µg/mL	8 µg/mL (≈ 15.9 µM)	1 µg/mL (≈ 1.99 µM)	2 µg/mL (≈ 3.98 µM)	128 µg/mL (≈ 255 µM)
